Converted amounts (≈) assume the structure as drawn.
Columns and labels:
Type in all cases: functional
Aspergillus clavatus = experiment: Antifungal activity against Aspergillus clavatus MTCC 1323 by two-fold serial dilution method
Aspergillus niger = experiment: Antifungal activity against Aspergillus niger MTCC 282 by two-fold serial dilution method
Candida albicans = experiment: Antifungal activity against Candida albicans MTCC 227 by two-fold serial dilution method
Streptococcus pyogenes = experiment: Antibacterial activity against Streptococcus pyogenes MTCC 442 by two-fold serial dilution method
Staphylococcus aureus = experiment: Antibacterial activity against Staphylococcus aureus MTCC 96 by two-fold serial dilution method
Pseudomonas aeruginosa = experiment: Antibacterial activity against Pseudomonas aeruginosa MTCC 1688 by two-fold serial dilution method
Escherichia coli = experiment: Antibacterial activity against Escherichia coli MTCC 443 by two-fold serial dilution method

Compound | MIC (Aspergillus clavatus) | MIC (Aspergillus niger) | MIC (Candida albicans) | MIC (Streptococcus pyogenes) | MIC (Staphylococcus aureus) | MIC (Pseudomonas aeruginosa) | MIC (Escherichia coli)
CC1=C(C(=O)Nc2ccc(C)cc2C)C(c2ccc(Cl)cc2)NC(=S)N1 (configuration not stated) | 3250 µM (≈ 1250 µg/mL) | 3250 µM (≈ 1250 µg/mL) | 3250 µM (≈ 1250 µg/mL) | 649 µM (≈ 251 µg/mL) | 812 µM (≈ 313 µg/mL) | 649 µM (≈ 251 µg/mL) | 812 µM (≈ 313 µg/mL)
CC1=C(C(=O)Nc2ccc(C)cc2C)C(c2cccc([N+](=O)[O-])c2)NC(=S)N1 (configuration not stated) | 3250 µM (≈ 1290 µg/mL) | 3250 µM (≈ 1290 µg/mL) | 1620 µM (≈ 644 µg/mL) | 649 µM (≈ 257 µg/mL) | 812 µM (≈ 322 µg/mL) | 812 µM (≈ 322 µg/mL) | 649 µM (≈ 257 µg/mL)
CC1(C)S[C@@H]2[C@H](NC(=O)[C@H](N)c3ccccc3)C(=O)N2[C@H]1C(=O)O [AMPICILLIN] | – | – | – | 100 µM (≈ 34.9 µg/mL) | 250 µM (≈ 87.4 µg/mL) | 100 µM (≈ 34.9 µg/mL) | 100 µM (≈ 34.9 µg/mL)
COc1ccc(C2NC(=S)NC(C)=C2C(=O)Nc2ccc(C)cc2C)cc1 (configuration not stated) | 3250 µM (≈ 1240 µg/mL) | 3250 µM (≈ 1240 µg/mL) | 3250 µM (≈ 1240 µg/mL) | 406 µM (≈ 155 µg/mL) | 203 µM (≈ 77.4 µg/mL) | 325 µM (≈ 124 µg/mL) | 203 µM (≈ 77.4 µg/mL)
CC1=C(C(=O)Nc2ccc(C)cc2C)C(c2ccc([N+](=O)[O-])cc2)NC(=S)N1 (configuration not stated) | 3250 µM (≈ 1290 µg/mL) | 3250 µM (≈ 1290 µg/mL) | 1620 µM (≈ 644 µg/mL) | 812 µM (≈ 322 µg/mL) | 812 µM (≈ 322 µg/mL) | 812 µM (≈ 322 µg/mL) | 406 µM (≈ 161 µg/mL)
CC1=C(C(=O)Nc2ccc(C)cc2C)C(c2ccccc2[N+](=O)[O-])NC(=S)N1 (configuration not stated) | 3250 µM (≈ 1290 µg/mL) | 3250 µM (≈ 1290 µg/mL) | 3250 µM (≈ 1290 µg/mL) | 406 µM (≈ 161 µg/mL) | 649 µM (≈ 257 µg/mL) | 649 µM (≈ 257 µg/mL) | 649 µM (≈ 257 µg/mL)
CC1=C(C(=O)Nc2ccc(C)cc2C)C(c2ccccc2O)NC(=S)N1 (configuration not stated) | 3250 µM (≈ 1190 µg/mL) | 3250 µM (≈ 1190 µg/mL) | 3250 µM (≈ 1190 µg/mL) | 325 µM (≈ 119 µg/mL) | 812 µM (≈ 298 µg/mL) | 406 µM (≈ 149 µg/mL) | 325 µM (≈ 119 µg/mL)
CC1=C(C(=O)Nc2ccc(C)cc2C)C(c2cccc(Cl)c2)NC(=S)N1 (configuration not stated) | 3250 µM (≈ 1250 µg/mL) | 3250 µM (≈ 1250 µg/mL) | 1620 µM (≈ 627 µg/mL) | 649 µM (≈ 251 µg/mL) | 812 µM (≈ 313 µg/mL) | 649 µM (≈ 251 µg/mL) | 325 µM (≈ 125 µg/mL)
NYSTATIN | 100 µM | 100 µM | 100 µM | – | – | – | –
CC1=C(C(=O)Nc2ccc(C)cc2C)C(c2cccc(O)c2)NC(=S)N1 (configuration not stated) | 3250 µM (≈ 1190 µg/mL) | 3250 µM (≈ 1190 µg/mL) | 1620 µM (≈ 597 µg/mL) | 203 µM (≈ 74.6 µg/mL) | 649 µM (≈ 239 µg/mL) | 649 µM (≈ 239 µg/mL) | 812 µM (≈ 298 µg/mL)
O=C(N[C@H](CO)[C@H](O)c1ccc([N+](=O)[O-])cc1)C(Cl)Cl [CHLORAMPHENICOL] | – | – | – | 50 µM (≈ 16.2 µg/mL) | 50 µM (≈ 16.2 µg/mL) | 50 µM (≈ 16.2 µg/mL) | 50 µM (≈ 16.2 µg/mL)

Source: ChEMBL document CHEMBL2424643, “An efficient synthesis, characterization, and antimicrobial screening of tetrahydropyrimidine derivatives” (2013)
